Data published in patent US20230398130A1, “METHODS AND COMPOSITIONS FOR DIFFERENTIATING STEM CELLS” (Massachusetts Institute of Technology, priority 2020, published 2023).

Assays:
[1] = system: ISC-enriched organoids; experiment: Primary screen, 384-well 2.5-D organoid differentiation (ENR+CD, 6 days): basal lysozyme secretion (LYZ.NS); assay type: cell-based, murine; details: for Dose.FC.LYZ.NS: FC vs plate median; for Dose.FC.LYZ.NS (log 2 fold change, basal lysozyme secretion) / Dose.FC.LYZ.NS (log 2 fold change): vs plate median
From the text: (§1) High-throughput screening.

[2] = system: ISC-enriched organoids; experiment: Primary screen, 384-well 2.5-D organoid differentiation (ENR+CD, 6 days, Target Selective Inhibitor Library, vs whole-plate median): ATP (CellTiter-Glo 3D, CTG); details: for Dose.FC.CTG: FC vs plate median; for Dose.FC.CTG (log 2 fold change, ATP) / Dose.FC.CTG (log 2 fold change): vs plate median
[3] = system: ISC-enriched organoids; experiment: Primary screen, 384-well 2.5-D organoid differentiation (ENR+CD, 6 days): carbachol-induced lysozyme secretion (LYZ.S); assay type: cell-based, murine; details: for Dose.FC.LYZ.S / Dose.FC.LYZ.S (log 2 fold change): primary screen; for Dose.FC.LYZ.S: FC vs plate median; for Dose.FC.LYZ.S (log 2 fold change, carbachol-induced lysozyme secretion) / Dose.FC.LYZ.S (log 2 fold change): vs plate median
From the text: as §1

[4] = primary screen, dose 0.08 uM, ENR+CD 6 days
[5] = primary screen, dose 0.08 uM, standard z score of FC
[6] = primary screen, dose 0.40 uM, ENR+CD 6 days
[7] = primary screen, dose 0.40 uM, standard z score of FC
[8] = primary screen, dose 2.00 uM, ENR+CD 6 days
[9] = primary screen, dose 2.00 uM, standard z score of FC
[10] = primary screen, dose 10.00 uM, ENR+CD 6 days
[11] = primary screen, dose 10.00 uM, standard z score of FC
[12] = Dose 0.08 uM, primary screen, standard z score
[13] = Dose 0.40 uM, primary screen, standard z score
[14] = Dose 2.00 uM, primary screen, standard z score
[15] = Dose 10.00 uM, primary screen, standard z score

C[C@@H]1COCCN1c1cc(C2(S(C)(=O)=O)CC2)nc(-c2cccc3[nH]ccc23)n1 [AZ20]
Dose.FC.LYZ.NS [1, 4]: 0.042 log 2 fold change
Z.LYZ.NS [1, 5]: 0.365
Dose.FC.LYZ.NS [1, 6]: −0.140 log 2 fold change
Z.LYZ.NS [1, 7]: −1.222
Dose.FC.LYZ.NS [1, 8]: −0.215 log 2 fold change
Z.LYZ.NS [1, 9]: −1.868
Dose.FC.LYZ.NS [1, 10]: −0.261 log 2 fold change
Z.LYZ.NS [1, 11]: −2.271
Dose.FC.CTG [2, 4]: −0.210 log 2 fold change
Z.CTG [2, 5]: −0.500
Dose.FC.CTG [2, 6]: −0.218 log 2 fold change
Z.CTG [2, 7]: −0.521
Dose.FC.CTG [2, 8]: −1.054 log 2 fold change
Z.CTG [2, 9]: −2.519
Dose.FC.CTG [2, 10]: −0.573 log 2 fold change
Z.CTG [2, 11]: −1.368
Dose.FC.LYZ.S ([3]; dose 0.08 uM, ENR+CD 6 days): −0.038 log 2 fold change
Dose.FC.LYZ.S ([3]; dose 0.40 uM, ENR+CD 6 days): −0.236 log 2 fold change
Dose.FC.LYZ.S ([3]; dose 2.00 uM, ENR+CD 6 days): −0.373 log 2 fold change
Dose.FC.LYZ.S ([3]; dose 10.00 uM, ENR+CD 6 days): −0.329 log 2 fold change

COc1cc2/c(=N/c3ccc(Br)cc3F)nc[nH]c2cc1OCC1CCN(C)CC1 [Vandetanib (ZD6474)]
Z.LYZ.NS (standard z score) ([1]; dose 0.08 uM): −0.594
Dose.FC.LYZ.NS (log 2 fold change, basal lysozyme secretion) ([1]; dose 0.08 uM): −0.068
Z.LYZ.NS (standard z score) ([1]; dose 0.40 uM): −0.792
Dose.FC.LYZ.NS (log 2 fold change, basal lysozyme secretion) ([1]; dose 0.40 uM): −0.091
Z.LYZ.NS (standard z score) ([1]; dose 2.00 uM): −2.356
Dose.FC.LYZ.NS (log 2 fold change, basal lysozyme secretion) ([1]; dose 2.00 uM): −0.271
Z.LYZ.NS (standard z score) ([1]; dose 10.00 uM): −2.594
Dose.FC.LYZ.NS (log 2 fold change, basal lysozyme secretion) ([1]; dose 10.00 uM): −0.298
Z.CTG (standard z score) ([2]; dose 0.08 uM): −1.547
Dose.FC.CTG (log 2 fold change, ATP) ([2]; dose 0.08 uM): −0.648
Z.CTG (standard z score) ([2]; dose 0.40 uM): −0.874
Dose.FC.CTG (log 2 fold change, ATP) ([2]; dose 0.40 uM): −0.366
Z.CTG (standard z score) ([2]; dose 2.00 uM): −2.089
Dose.FC.CTG (log 2 fold change, ATP) ([2]; dose 2.00 uM): −0.874
Z.CTG (standard z score) ([2]; dose 10.00 uM): −2.880
Dose.FC.CTG (log 2 fold change, ATP) ([2]; dose 10.00 uM): −1.206
Dose.FC.LYZ.S (log 2 fold change, carbachol-induced lysozyme secretion) ([3]; dose 0.08 uM): −0.139
Dose.FC.LYZ.S (log 2 fold change, carbachol-induced lysozyme secretion) ([3]; dose 0.40 uM): −0.054
Dose.FC.LYZ.S (log 2 fold change, carbachol-induced lysozyme secretion) ([3]; dose 2.00 uM): −0.384
Dose.FC.LYZ.S (log 2 fold change, carbachol-induced lysozyme secretion) ([3]; dose 10.00 uM): −0.494

CNC(=O)c1ccc2cc([C@@]3(O)CCn4cncc43)ccc2c1 [TAK-700 (Orteronel)]
Z.LYZ.NS (standard z score) ([1]; Dose 0.08 uM, primary screen): 1.535
Dose.FC.LYZ.NS (log 2 fold change) ([1]; Dose 0.08 uM, primary screen): 0.176
Z.LYZ.NS (standard z score) ([1]; Dose 0.40 uM, primary screen): 1.585
Dose.FC.LYZ.NS (log 2 fold change) ([1]; Dose 0.40 uM, primary screen): 0.182
Z.LYZ.NS (standard z score) ([1]; Dose 2.00 uM, primary screen): 1.058
Dose.FC.LYZ.NS (log 2 fold change) ([1]; Dose 2.00 uM, primary screen): 0.121
Z.LYZ.NS (standard z score) ([1]; Dose 10.00 uM, primary screen): −0.018
Dose.FC.LYZ.NS (log 2 fold change) ([1]; Dose 10.00 uM, primary screen): −0.002
Z.CTG (standard z score) ([2]; Dose 0.08 uM, primary screen): −0.659
Dose.FC.CTG (log 2 fold change) ([2]; Dose 0.08 uM, primary screen): −0.276
Z.CTG (standard z score) ([2]; Dose 0.40 uM, primary screen): −0.056
Dose.FC.CTG (log 2 fold change) ([2]; Dose 0.40 uM, primary screen): −0.024
Z.CTG (standard z score) ([2]; Dose 2.00 uM, primary screen): −0.202
Dose.FC.CTG (log 2 fold change) ([2]; Dose 2.00 uM, primary screen): −0.084
Z.CTG (standard z score) ([2]; Dose 10.00 uM, primary screen): 0.219
Dose.FC.CTG (log 2 fold change) ([2]; Dose 10.00 uM, primary screen): 0.092
Dose.FC.LYZ.S (log 2 fold change) ([3]; Dose 0.08 uM): 0.113
Dose.FC.LYZ.S (log 2 fold change) ([3]; Dose 0.40 uM): 0.090
Dose.FC.LYZ.S (log 2 fold change) ([3]; Dose 2.00 uM): 0.093
Dose.FC.LYZ.S (log 2 fold change) ([3]; Dose 10.00 uM): 0.032

COc1ccc(COc2ccc(Cc3cnc(N)nc3N)cc2OC)cc1 [GW2580]
Dose.FC.LYZ.NS ([1]; Dose 0.08 uM, primary screen): 0.006 log 2 fold change
Z.LYZ.NS [1, 12]: 0.056
Dose.FC.LYZ.NS ([1]; Dose 0.40 uM, primary screen): 0.014 log 2 fold change
Z.LYZ.NS [1, 13]: 0.118
Dose.FC.LYZ.NS ([1]; Dose 2.00 uM, primary screen): −0.060 log 2 fold change
Z.LYZ.NS [1, 14]: −0.525
Dose.FC.LYZ.NS ([1]; Dose 10.00 uM, primary screen): −0.018 log 2 fold change
Z.LYZ.NS [1, 15]: −0.158
Dose.FC.CTG ([2]; Dose 0.08 uM, primary screen): −0.042 log 2 fold change
Z.CTG [2, 12]: −0.101
Dose.FC.CTG ([2]; Dose 0.40 uM, primary screen): −0.284 log 2 fold change
Z.CTG [2, 13]: −0.678
Dose.FC.CTG ([2]; Dose 2.00 uM, primary screen): 0.029 log 2 fold change
Z.CTG [2, 14]: 0.068
Dose.FC.CTG ([2]; Dose 10.00 uM, primary screen): −0.038 log 2 fold change
Z.CTG [2, 15]: −0.091
Dose.FC.LYZ.S ([3]; Dose 0.08 uM): −0.013 log 2 fold change
Dose.FC.LYZ.S ([3]; Dose 0.40 uM): 0.020 log 2 fold change
Dose.FC.LYZ.S ([3]; Dose 2.00 uM): −0.060 log 2 fold change
Dose.FC.LYZ.S ([3]; Dose 10.00 uM): −0.026 log 2 fold change
